The text below walks through data of PMC7866009, “Evaluation of Nanotargeted ^111In-Cyclic RGDfK-Liposome in a Human Melanoma Xenotransplantation Model” (International Journal of Molecular Sciences, 2021).

Non-standard residues stand in square brackets, D forms with d.

Assay [1] relates to αVβ3 integrin-mediated adhesion of A375.S2 cells. Nature of the assay: CytoSelect cell adhesion assay of A375.S2 cells on extracellular matrix proteins. Particulars: 100 nM; cells adhere to coated plate at 37 °C (1 h in legend, 90 min in method); crystal violet OD 560 nm; five experiments. In kind it is cell-based, human. As for the experimental part: Next, we tested the effect of the cyclic RGDfK-liposome on the αVβ3 integrin -mediated cellular adhesion using human malignant melanoma A375.S2 cells on recombinant extracellular matrix proteins.
Figure 1 Evaluating the effect of the cyclic RGDfK-liposome on αVβ3 integrin-mediated cell adhesion. […] A375.S2 cells was pretreated with 100 nM cRGDfV, cRGDfK, cRGDfK-PEG2000-DSPE or the cRGDfK-liposome and allowed to adhere to a coating of fibronectin, collagenI or collagen IV for 1 h at 37 °C before washing and detection of cell adhesion (B) or followed by staining with FITC-labeled mouse anti-human CD51/CD61 monoclonal antibody (C). […] These experiments were performed for five times.
Adhesion assay were performed with CytoSelect TM Cell Adhesion Assay Kit. Principle, A375.S2 cells (1 × 10^6/well) in working solution (serum-free MEM medium, 1mM Mn^2+, and 0.5% bovine serum albumin) were allowed to adhere to extracellular matrix proteins-coated plate for 90 min at 37 °C. Cells were analyzed for binding in the presence or absence of test subjects. Non-adherent cells were removed by a flick wash. The adherent cells were stained with crystal violet and examined the optical density at λmax 560 nm.

The subject of assay [2] is integrin αVβ3. The settings on record: cited from earlier work. An excerpt: The arginin-glycine-aspatic acid (RGD) sequence is the cell attachment site of a large number of adhesive extracellular matrix, blood, and cell surface proteins, and nearly half of the over 20 known integrins recognize this sequence in their adhesion protein ligands. The integrin-binding selective activity to only one or a few of the RGD-directed integrins can be designed by cyclizing peptides with selected sequences around the RGD.

In assay [3] the target is αVβ3 integrin (human (endogenous in A375.S2)) (UniProt P06756).
Assay [4] shares this target. The source holds these as a separate data set.

Sequence of UniProt P06756 (P06756 31-1048, chain 1 of 2): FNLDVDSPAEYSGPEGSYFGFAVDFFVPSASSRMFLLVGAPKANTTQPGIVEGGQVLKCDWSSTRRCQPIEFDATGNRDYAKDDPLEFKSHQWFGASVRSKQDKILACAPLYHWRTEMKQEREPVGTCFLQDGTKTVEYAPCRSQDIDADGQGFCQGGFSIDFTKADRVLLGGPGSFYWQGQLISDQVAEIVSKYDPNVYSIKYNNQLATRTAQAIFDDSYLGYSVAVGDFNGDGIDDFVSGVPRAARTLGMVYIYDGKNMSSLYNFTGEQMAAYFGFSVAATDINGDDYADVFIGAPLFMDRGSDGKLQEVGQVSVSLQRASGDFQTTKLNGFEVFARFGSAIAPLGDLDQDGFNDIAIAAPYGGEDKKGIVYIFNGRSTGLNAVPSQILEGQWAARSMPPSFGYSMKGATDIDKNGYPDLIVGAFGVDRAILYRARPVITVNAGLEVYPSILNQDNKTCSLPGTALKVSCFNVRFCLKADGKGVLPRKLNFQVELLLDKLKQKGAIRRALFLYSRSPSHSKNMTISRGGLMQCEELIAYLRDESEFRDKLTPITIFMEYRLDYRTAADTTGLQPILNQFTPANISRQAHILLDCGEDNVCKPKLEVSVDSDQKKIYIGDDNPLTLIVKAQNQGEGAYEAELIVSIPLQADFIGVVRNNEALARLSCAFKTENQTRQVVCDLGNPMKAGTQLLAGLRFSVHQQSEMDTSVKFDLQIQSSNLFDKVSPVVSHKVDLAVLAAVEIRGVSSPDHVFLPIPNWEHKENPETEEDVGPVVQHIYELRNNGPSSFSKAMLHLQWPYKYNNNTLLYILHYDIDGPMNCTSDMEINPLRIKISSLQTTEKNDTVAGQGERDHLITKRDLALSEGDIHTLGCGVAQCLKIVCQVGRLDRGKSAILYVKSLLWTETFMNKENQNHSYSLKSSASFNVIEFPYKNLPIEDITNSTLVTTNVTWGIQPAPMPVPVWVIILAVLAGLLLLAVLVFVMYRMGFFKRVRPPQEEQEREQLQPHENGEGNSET
Sequence of UniProt P06756 (P05106 27-788, chain 2 of 2, further chain): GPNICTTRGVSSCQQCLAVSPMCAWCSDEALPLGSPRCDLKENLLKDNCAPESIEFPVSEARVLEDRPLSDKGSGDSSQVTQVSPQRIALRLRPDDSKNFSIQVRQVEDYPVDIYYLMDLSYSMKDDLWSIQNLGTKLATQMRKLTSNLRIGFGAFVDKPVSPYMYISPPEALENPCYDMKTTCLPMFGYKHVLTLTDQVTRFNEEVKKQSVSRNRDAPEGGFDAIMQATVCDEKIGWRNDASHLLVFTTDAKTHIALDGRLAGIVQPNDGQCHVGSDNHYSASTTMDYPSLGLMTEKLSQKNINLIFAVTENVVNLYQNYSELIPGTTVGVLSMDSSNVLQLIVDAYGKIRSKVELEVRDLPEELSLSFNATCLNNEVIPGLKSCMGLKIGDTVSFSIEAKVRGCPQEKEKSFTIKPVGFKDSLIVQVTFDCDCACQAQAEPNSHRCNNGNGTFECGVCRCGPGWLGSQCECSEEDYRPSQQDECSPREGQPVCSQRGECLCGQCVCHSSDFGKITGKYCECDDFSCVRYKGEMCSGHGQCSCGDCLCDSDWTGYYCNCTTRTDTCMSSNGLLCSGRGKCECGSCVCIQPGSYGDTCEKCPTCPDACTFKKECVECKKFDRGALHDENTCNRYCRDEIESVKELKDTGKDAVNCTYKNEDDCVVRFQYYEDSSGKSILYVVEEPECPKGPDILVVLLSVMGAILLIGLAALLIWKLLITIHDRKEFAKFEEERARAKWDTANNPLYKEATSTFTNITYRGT

For the molecule `N=C(N)NCCC[C@@H]1NC(=O)[C@H](CCCCN)NC(=O)[C@@H](Cc2ccccc2)NC(=O)[C@H](CC(=O)O)NC(=O)CNC1=O` [cRGDfK], the “A375.S2 cell adhesion to fibronectin, collagen I, and collagen IV” value in assay [1] is “markedly reduced”. In assay [2], the “binding affinity for integrin αVβ3” value was “high binding affinity”.

Take `CC(C)[C@@H]1NC(=O)[C@@H](Cc2ccccc2)NC(=O)[C@H](CC(=O)O)NC(=O)CNC(=O)[C@H](CCCNC(=N)N)NC1=O` [cRGDfV]: the “A375.S2 cell adhesion to fibronectin, collagen I, and collagen IV” value in assay [1] is recorded as “markedly reduced”. Besides, the “binding affinity for integrin αVβ3” value in assay [2] is “high binding affinity”.

B1: cyclic RGDfK-liposome (peptide)
peptide: cyclo(RGD[dF]K)
modifications: also: conjugated via NHS-PEG2000-DSPE, inserted into PEGylated liposome
For the molecule B1, in assay [3], the tumor-to-blood ratio of the 111In-labeled cyclic RGDfK-liposome, mice with a metastatic growth of human melanoma cells (111In-liposome without peptide: 1.3) is 5.6 and the uptake of the 111In-labeled cyclic RGDfK-liposome in tumor (jejunal lymph node), mice with a metastatic growth of human melanoma cells (111In-liposome without peptide: 2.9) was determined as 6.2 %ID/g. For the same molecule, in assay [4], the tumor-to-blood ratio of the 111In-labeled cyclic RGDfK-liposome, mice without a metastatic growth of human melanoma cells (111In-liposome without peptide: 1) was determined as 4.8 and the uptake of the 111In-labeled cyclic RGDfK-liposome in tumor, mice without a metastatic growth of human melanoma cells (111In-liposome without peptide: 2.2) came out at 5.3 %ID/g.
